Measurements as given in patent US11878012B2, “Compositions and methods for treating traumatic brain injury” (Board of Regents, the University of Texas System, priority 2020, dated 2024).

What was measured:
[1] = test system: DGGCs; assay: Ca2+ imaging with calcium green-1 in DGGCs of hippocampal slices, whole-cell mode; assay type: cell-based, mice; details: M084 and ML204 together, 10 μm
Protocol: (§1) Hippocampal Slice Preparation. […] Hippocampal slices were maintained in oxygenated ACSF at 30° C. for 60 min and experiments were performed at 25° C.
Ca2^+ Imaging. Concurrent with patch-clamp electrophysiology, neurons in slices were also imaged (Nikon FN-1, 40× water-immersion objective) via the fluorescent Ca^2+-reporter dye calcium green-1. As a hexapotassium salt, the dye (10 μm) was added to the intracellular patch pipette solution and neurons were patched under whole-cell clamp, as described above. Cells were loaded for 10 min before image acquisition. Fluorescence intensity was obtained using a SOLA Light Engine illumination source (Lumencor) with an output of 3.5 W through a 3-mm-diameter liquid light guide through a Nikon ET-GFP filter. Nikon Elements software was used for image acquisition through a QIClick CCD camera (QImaging). Images were acquired with an exposure time of 200 ms every 2 min using a single-channel, 12-bit rate and no binning. The shutter was closed between each acquisition. For each cell, the corrected total cell fluorescence was measured as the integrated density intensity—(cell area*mean background emission). Ca^2+ signals were measured as the change in fluorescence relative to the baseline fluorescence (ΔF/F0). Averages of four images were thresholded at 10%, masked using a highly averaged image of the cell, and encoded with a pseudocolor look-up table. Group cell fluorescence data were averaged in comparison with normalized intensity at each time point.

[2] = test system: DGGCs; assay: Patch-clamp / current-clamp recordings of DGGCs in hippocampal slices (action potentials, AHP, IM amplitude); assay type: cell-based, mice
Protocol: as §1

[3] = test system: pilocarpine-induced seizures; assay: Pilocarpine-induced chemoconvulsant seizure model; assay type: in vivo, mice; details: M084 10 mg/kg 30 min before pilocarpine 280 mg/kg, n=8
Protocol: After administration of scopolamine (1 mg/kg), control mice were pretreated with saline vehicle and then were administered pilocarpine (280 mg/kg) 30 min later.
The muscarinic agonist pilocarpine was used to induce seizures in vivo. Two-month-old mice were injected with scopolamine methylnitrate (1 mg/kg; MP Biomedicals) to block peripheral mAChRs 30 min before administration of pilocarpine hydrochloride (280 mg/kg; Sigma-Aldrich). Drugs were delivered via intraperitoneal injection in 0.9% sterile saline at a total volume equivalent to 1% of the mouse body weight. Control mice were given the same dose of scopolamine followed by vehicle saline 30 min later. […] Peak seizure activity was observed 60 min after pilocarpine delivery with occasional forelimb clonus.

[4] = test system: seizure susceptibility; assay: PTZ kindling after sham or CCI-TBI; details: M084 10 mg/kg s.c. 1 hour before each PTZ 35 mg/kg, from 7 days after surgery
Protocol: The fact that only a portion of TBI cases become susceptible to epileptic seizures is a yet unanswered phenomenon in both preclinical and clinical studies. Therefore, we investigated seizure susceptibility within the CCI-TBI model to gain a greater understanding as to the etiology of hyperexcitability spread occurring post-injury. […] In our seizure susceptibility paradigm, 1 or 7 days after experimental procedure, mice were challenged with a subconvulsant dose of PTZ (35 mg/kg s.c.) once-daily to elicit kindling epileptogenesis (FIG. 6A). The progression of motor seizure behavior was observed and timed by direct observation linked to EEG activity (FIG. 6B).
We wished to understand if the TRPC channel upregulation after TBI could be targeted to impede epileptogenic activity. […] Seizure susceptibility was standardized according to the latency to forelimb clonus lasting greater than 5 sec.
Controlled cortical impact traumatic brain injury. The controlled cortical impact (CCI) traumatic brain injury (TBI) model was applied, with a closed skull impact approach. The CCI model causes TBI, but the skull remains intact with minimal hematoma. This type of brain injury model most closely simulates the TBI experienced during blunt-head injuries from vehicular accidents or falls. Mice were anesthetized with isoflurane (3% induction, 1% maintenance) in 100% O2. Body temperature of 37° C. was maintained using a temperature-controlled heated surgical table. The skull was fixed with ear-bars into a stereotaxic frame. A small midline incision was made on the scalp using aseptic surgical techniques. Impact was delivered by cylindrical probe of 5 mm diameter with an Impact One neurotrauma impactor (Leica Biosystems). A calibrated impact was delivered at 4.5 m/sec to a depth of 1 mm and 0.5 sec dwell time to the right parietal cortex (−1.8 mm ML, +2.0 mm AP, −1.0 mm DV). […] The scalp was then sutured closed and mice were placed in a warming recirculation unit and monitored until fully awake and moving freely. […] For consistency, the left hemisphere of both sham and TBI mice is designated as “contralateral” brain, and the right hemisphere is referred to as “ipsilateral”, despite no impact injury occurring in sham mice.
In vivo electroencephalograms. To determine seizure frequency and record brain susceptibility to seizures, mice were implanted with electroencephalogram (EEG) electrodes 24 hr after sham or TBI. A three-channel tethered EEG system was used. The electrode pedestal (P1 Technologies) was secured to the skull with three anchored dental screws and connected to a preamplifier with gain of 25. The three leads were inserted over the left frontal cortex, left parietal cortex, and depth electrode lead into the hippocampus. The Stellate Harmonie acquisition hardware and software were used to collect coincident video and EEG activity. EEGs were inspected for presence of epileptiform spikes and seizures.
Seizure susceptibility assays. Pentylenetetrazol kindling model. Seizure susceptibility was tested with the GABAA receptor antagonist pentylenetetrazol (PTZ) for progression of motor seizure activity. Mice were injected with PTZ (35 mg/kg, s.c.) once per day and scored for motor behavioral seizures.

[5] = test system: TRPC4/5 channels; details: description from literature; cited from earlier work
[6] = 2015, cited from earlier work
[7] = TRPC4/5 channels blocked, control or plus 77-LH-28-1 3 μM

**Q.** What does the source list for `CCCCNc1nc2ccccc2[nH]1` [M084, N-butyl-1H-benzimidazol-2-amine]?
**A.** maximum calcium-green 1 emission on muscarinic stimulation [1]: 1.61±0.21 fold; action potential threshold ([2]; M084 10 μm only, n=8 cells): −45.4±1.3 mV; action potential firing rate on M1R agonist ([2]; TRPC4/5 blockade with M084 10 μm, 77-LH-28-1 3 μm): did not increase; AHP amplitude [2, 7]: 13.2 ± 0.7 mV; AHP area [2, 7]: 196.8 ± 13.3 ms* mV; AHP decay [2, 7]: 14.8 ± 0.7 ms; membrane potential values (voltage floor), control ACSF vs 77-LH-28-1 3 μm ([2]; in presence of M084 10 μm): no significant differences; mean maximum Racine seizure stage [3]: 1.1±0.5; status epilepticus [3]: not observed in any animal; days to clonic seizures [4]: 10.6 ± 0.5 days; days to demonstrate myoclonic jerks [4]: 7.3 ± 0.6 days; days to tonic-clonic seizure behavior [4]: 11.0 ± 0.6 days; effect on TRPC4/5 channels [5]: potent inhibitor or antagonist; brain concentration at time of PTZ challenge ([6]; 1 hour after M084 10 mg/kg s.c., inferred from Yang et al.): likely within the micromolar range; blood-brain barrier crossing ([6]; Yang et al.): crosses the blood-brain barrier
